Laboratory results published in PubChem BioAssay (NCI).
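Step 1: Grow cells in 96-well plates. Step 2: Expose to compound for 48 hours at 5 concentrations. Step 3: Interpolate endpoints linearly; if unreached, use highest concentration. TGI: concentration producing complete growth inhibition.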

Legend:
Assay in all cases: NCI anticancer screen, dose series, 48 h
786-0 renal = system: 786-0 renal
LOX IMVI melanoma = system: LOX IMVI melanoma
NCI-H226 lung = system: NCI-H226 lung
OVCAR-8 ovarian = system: OVCAR-8 ovarian
RPMI-8226 leukemia = system: RPMI-8226 leukemia
RXF 393 renal = system: RXF 393 renal
SN12C renal = system: SN12C renal
SNB-19 CNS = system: SNB-19 CNS
T-47D breast = system: T-47D breast
TK-10 renal = system: TK-10 renal
U251 CNS = system: U251 CNS

SMILES	TGI (786-0 renal) [µM]	TGI (LOX IMVI melanoma) [µM]	TGI (NCI-H226 lung) [µM]	TGI (OVCAR-8 ovarian) [µM]	TGI (RPMI-8226 leukemia) [µM]	TGI (RXF 393 renal) [µM]	TGI (SN12C renal) [µM]	TGI (SNB-19 CNS) [µM]	TGI (T-47D breast) [µM]	TGI (TK-10 renal) [µM]	TGI (U251 CNS) [µM]
Cn1c(-c2ccc(/C=N\N3CCN(/N=C/c4ccc(-c5c[n+]6ccccc6n5C)cc4)CC3)cc2)c[n+]2ccccc12	70.7	> 100	> 100	> 100	> 100	60.9	> 100	> 100	> 100	> 100	> 100
Cc1cccc(NC(=S)N=Nc2c(O)[nH]c3ccccc23)c1	> 100	> 100	> 100	> 100	> 100	> 100	> 100	> 100	> 100		> 100
CNC(=O)c1[nH]cnc1/N=N/N(C)N	> 100	> 100	> 100	> 100	> 100	> 100	> 100		> 100	> 100	> 100
COc1cccc(-c2cc(=O)c3c(C)ccnc3[nH]2)c1	> 100	> 100	0.0742	> 100	11.8	> 100	> 100	> 100	> 100	> 100	> 100
CN(C)c1ccc(/C=C/C=C(/C#N)c2ccccc2)cc1	> 62.7	> 74.3	> 100	> 91.9	> 95.3	> 79.5	> 100	> 88.1	> 100	> 100	55.5
CC(C)CCn1c(=O)c2c(=O)[nH][nH]c2c2ccccc21	> 100	> 100	> 100	> 100	> 100		> 100	> 100		> 100	> 100
COc1ccc(NC(=O)/C(CC2=Nc3ccc([N+](=O)[O-])cc3NC2O)=N\NC(=O)C[N+](C)(C)C)c(OC)c1 (stereo not drawn)	68.8	> 100	> 100	69.8		> 100	> 100	> 100		> 100	> 100
O[C@@H]1C[C@@H]2N[C@@](O)(C[C@@H]2O)[C@H]1O	> 100	> 100	> 100	> 100	> 100	> 100	> 100	> 100	> 100	> 100	> 100
C=C1C(=O)OC2C1CC(O)/C(C)=C\CCC1(C)OC21 (stereo not drawn)	> 100	78.7		> 100	65.4	31.8		> 100	> 100	> 100	54.8
Cc1ccc(N=C2C(=O)C3=C(OC(C)(C)CC3)c3ccccc32)cc1	3.18		> 20.4		0.933	3.12	1.73	2.26	1.37	4.86	1.91
S=c1[nH]c(=S)c2cc(Sc3ccc4[nH]c(=S)[nH]c(=S)c4c3)ccc2[nH]1	40		52.5	48.1	54.9	53.3	> 100	78.2	> 100	67.7	> 100
CCOC(=O)C(NC(=O)Nc1ccc(Cl)c(Cl)c1)C(F)(F)F (stereo not drawn)	> 100	> 100		> 100	> 100	> 100	> 100	> 100	> 100	> 100	> 100
CC(=O)Nc1ccc2c3c(cc(O)c2c1)N(C(=O)CCCCC(=O)Nc1ccc2c4c(cc(O)c2c1)N(C(=O)OC(C)(C)C)CC4CCl)CC3CCl (stereo not drawn)	9.36	> 34.6	5.55	> 38.7	> 25.8	3.26	21.8	> 29.5		> 65.5	10
CC1C[C@]2(C)C(=O)N(c3ccccc3)C(=N)[C@@H]2N(C)c2ccccc21 (stereo partly drawn)	> 100	> 100	> 100	> 100	> 100	> 100	> 100	> 100	> 100	> 100	
COc1cc2c(cc1OC)CC(N=[N+]=[N-])c1cc(OC)c(OC)cc1/C=C\2 (stereo not drawn)	> 100	> 100	> 100	55.8	> 100		> 100	> 100	> 100	> 100	> 100
COCc1cc2c(cc1/C=C/[N+](=O)[O-])OCO2	33.5	67.9	42.9	55.2	> 100	32.3	34		41.8	30.8	31.6
COc1ccc(CCNC(=O)Cc2cc(OC)c(OC)cc2CO)cc1OC	> 100	> 100	> 100	> 100	> 100	> 100	> 100		> 100	> 100	> 100
CC(C)C[P+](c1ccccc1)(c1ccccc1)c1ccccc1	> 100	> 100	> 100		0.033		> 100	> 100	> 100	66.5	> 100
COC(=O)c1csc(-c2nc(CCNC(=O)OC(C)(C)C)sc2Br)n1	> 100		> 100	> 100	> 100	> 100	> 100	> 100		> 100	> 100
COc1ccc2c3c1OC1c4[nH]c5ccccc5c4CC4(O)C(C2)N(C)CCC314 (stereo not drawn)	34.3	52		> 100	45.9	50.8	> 100	> 100	43.6	50.2	44.8
CSC1=C(c2ccc(Cl)cc2)SC(N2CCCCC2)N1c1ccc([N+](=O)[O-])cc1 (stereo not drawn)	> 100	> 100	> 100	93.7	45.2	> 100		> 100	70.1	> 100	56.4
